Data published in US20170348306A1, “METHODS OF TREATING CANCER” (GLAXOSMITHKLINE LLC, priority 2011, published 2017).

What was measured:
[1] = system: H3K27me3 and EZH2 target genes in tumor xenografts; experiment: Pharmacodynamic study in tumor xenografts (H3K27me3/H3 ELISA, qRT-PCR); format: in vivo, mice; settings: 10 days of once-daily (QD) dosing; dose-dependent
Protocol: Following tissue homogenization, tumor tissue lysates were prepared using the Epigentek Histone Extraction kit (OP-0006). […] Cells were lysed with 0.2N HCl for 30 minutes to extract histones, the acid-insoluble portion was pelleted by centrifugation, and the supernatant was neutralized with neutralization buffer (1M Na2HPO4, pH 12.5; ActiveMotif) containing protease inhibitors (Roche). Lysates were added to Maxisorp ELISA plates (Nunc) in duplicate on each of two plates plus blocking buffer (1% BSA). […] Luminata Forte substrate (Millipore) was added 5 minutes before chemiluminescence was quantified with an EnVision multi-label plate reader (PerkinElmer). H3K27me3 levels were normalized to total H3 values and IC50 values were determined using a 4-parameter curve fit. […]
All studies were conducted after review by the Institutional Animal Care and Use Committee at GSK and in accordance with the GSK Policy on the Care, Welfare and Treatment of Laboratory Animals. […] Tumors were measured with calipers, block randomized according to tumor size into treatment groups. […] Mice were weighed and tumors measured with calipers twice weekly. […]

KARPAS-422 [2] = experiment: Cell cycle analysis by flow cytometry; format: cell-based, human; settings: 500 nM GSK126, 72 hours
Protocol: Cell cycle phase distribution was examined by flow cytometry. […] Cells were washed with PBS, pelleted in BD buffer solution, flash frozen, and stored at −80° C. CycleTest™ PLUS DNA reagent kit (Becton Dickinson, 340242) was used according to the manufacturer's instructions to prepare and stain nuclei with propidium iodide. Samples were evaluated using a FACSCalibur flow cytometer (Becton Dickinson) and data were analyzed using FlowJo software (Tree Star).

[3] = Complete blood count analysis of peripheral blood; format: in vivo; settings: immunocompetent CD-1 mice; twice weekly dosing over 18 days
Protocol: (§1) All studies were conducted after review by the Institutional Animal Care and Use Committee at GSK and in accordance with the GSK Policy on the Care, Welfare and Treatment of Laboratory Animals. […] Pfeiffer or KARPAS-422 cells (1×10^7) in 100% matrigel (BD Biosciences) were implanted subcutaneously in female beige SCID mice. Tumors were measured with calipers, block randomized according to tumor size into treatment groups. […] Mice were weighed and tumors measured with calipers twice weekly. For mouse pharmacokinetic studies, tumor and blood samples were harvested from euthanized mice at the indicated time. […] For pharmacodynamic studies, a portion of each tumor was frozen for H3K27me3/H3 ELISAs or placed in RNAlater (Ambion) for RNA isolation. For peripheral blood analyses, blood was harvested via cardiac puncture from euthanized, immunocompetent CD-1 mice (3 mice/group) on day 18. Blood was immediately placed into a Microtainer EDTA tube (BD) and gently mixed by inverting. A complete blood count analysis was conducted using the Advia 2120 hematology analyzer (Siemens Medical Solutions) using multi-species software as per manufacturer's instructions.

[4] = Tolerability in xenograft-bearing mice (body weight, behavior); format: in vivo
Protocol: as §1

KARPAS-422 xenografts = experiment: Subcutaneous tumor xenograft efficacy study; format: in vivo, mice; settings: for tumor response upon cessation of dosing / tumor growth: KARPAS-422 xenografts
Protocol: (§2) Biochemical assays utilized the 5-member PRC2 complex (human Flag-EZH2, EED, SUZ12, AEBP2, RbAp48) containing either WT or mutant EZH2, [^3H-]SAM and the indicated peptide substrate; reactions were incubated for 30 minutes. Global histone modification levels were determined by ELISA or western blot methods using antibodies specific for total histone H3, H3K27me1, H3K27me2, or H3K27me3. Cell proliferation and Caspase-3/7 activity were assessed using CellTiter-Glo and Caspase-Glo 3/7 (Promega), respectively. Gene expression profiling was conducted using Affymetrix Human Genome U133 Plus 2.0 microarrays. Differentially-expressed probe sets were determined by fitting the data to a linear model using the limma statistical package (http://www.bioconductor.org) and carrying out pair-wise contrasts of treated versus control. Significant probe sets were filtered for detection (log2 signal threshold of 8), an average fold-change >2 or <−2, or >1.5 or <−1.5, where indicated, with p-values adjusted for multiple testing correction by FDR (Benjamini Hochberg)<0.1. H3K27me3 ChIP reads were aligned using Bowtie (56). H3K27me3 enrichment peaks were identified using SICER (57) with optimized parameters. A custom PERL script was utilized to quantify the average basal H3K27me3 ChIP-seq tag density across gene sets. All in vivo studies were conducted after review by the Institutional Animal Care and Use Committee at GSK and in accordance with the GSK Policy on the Care, Welfare and Treatment of Laboratory Animals. GSK126 and vehicle were administered to mice intraperitoneally. Two-tailed t-tests were conducted assuming two samples of equal variance.
as §1

Pfeiffer xenografts = experiment: Subcutaneous tumor xenograft efficacy study; format: in vivo, mice; settings: daily 50 mg/kg, intraperitoneal
Protocol: as §2, §1

EZH1 = EZH1 (Homo sapiens, UniProt Q92800); experiment: Inhibition of EZH1 methyltransferase activity; format: biochemical; settings: read-out: Ki app
Pfeiffer = experiment: Cell proliferation assay (6 days, CellTiter-Glo); format: cell-based, human
Description: (§3) Thus, Example 22 and Table 6 better reflect the inhibition of HZH2 inhibitors on cell lines, e.g. the lymphoma cell lines. DLBCL cell lines were the most sensitive to EZH2 inhibition (FIG. 11a). […] Evaluation of GSK126 in additional lymphoma cell lines and extensive genomic and epigenomic characterization will be required to fully elucidate the determinants of sensitivity among lymphoma subtypes.
as §2
(§4) The optimal cell seeding was determined empirically for all cell lines by examining the growth of a wide range of seeding densities in a 384-well format to identify conditions that permitted proliferation for 6 days. […] Plates were incubated for 6 days at 37° C. in 5% CO2. Cells were then lysed with CellTiter-Glo (Promega) and chemiluminescent signal was detected with a TECAN Safire2 microplate reader. In addition, an untreated plate of cells was harvested at the time of compound addition (T0) to quantify the starting number of cells. CTG values obtained after the 6 day treatment were expressed as a percent of the T0 value and plotted against compound concentration.

KARPAS-422 [5] = experiment: Cell proliferation assay (6 days, CellTiter-Glo); format: cell-based, human
Description: as §3, §2, §4

Chain of EZH1 (Q92800 whole entry): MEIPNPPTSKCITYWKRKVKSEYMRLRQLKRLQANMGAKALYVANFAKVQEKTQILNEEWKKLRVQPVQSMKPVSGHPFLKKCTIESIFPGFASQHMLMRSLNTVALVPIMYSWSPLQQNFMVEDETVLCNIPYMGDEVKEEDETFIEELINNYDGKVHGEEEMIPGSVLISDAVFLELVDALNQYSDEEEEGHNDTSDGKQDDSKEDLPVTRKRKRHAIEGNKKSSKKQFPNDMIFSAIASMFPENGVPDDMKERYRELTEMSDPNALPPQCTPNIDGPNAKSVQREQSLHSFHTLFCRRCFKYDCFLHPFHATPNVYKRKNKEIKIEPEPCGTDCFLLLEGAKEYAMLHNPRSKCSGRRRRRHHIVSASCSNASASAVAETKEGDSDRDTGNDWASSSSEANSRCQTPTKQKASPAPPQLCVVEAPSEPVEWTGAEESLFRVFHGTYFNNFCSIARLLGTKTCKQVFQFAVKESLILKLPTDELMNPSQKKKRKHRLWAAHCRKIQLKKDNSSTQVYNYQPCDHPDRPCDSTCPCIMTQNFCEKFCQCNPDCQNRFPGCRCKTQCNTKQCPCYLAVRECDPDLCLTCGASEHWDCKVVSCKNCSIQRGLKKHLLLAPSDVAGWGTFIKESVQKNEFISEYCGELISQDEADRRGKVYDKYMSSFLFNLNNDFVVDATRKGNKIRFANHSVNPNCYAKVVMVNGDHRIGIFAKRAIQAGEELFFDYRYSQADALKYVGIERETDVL
Chain of EZH1 (O75530 whole entry partner): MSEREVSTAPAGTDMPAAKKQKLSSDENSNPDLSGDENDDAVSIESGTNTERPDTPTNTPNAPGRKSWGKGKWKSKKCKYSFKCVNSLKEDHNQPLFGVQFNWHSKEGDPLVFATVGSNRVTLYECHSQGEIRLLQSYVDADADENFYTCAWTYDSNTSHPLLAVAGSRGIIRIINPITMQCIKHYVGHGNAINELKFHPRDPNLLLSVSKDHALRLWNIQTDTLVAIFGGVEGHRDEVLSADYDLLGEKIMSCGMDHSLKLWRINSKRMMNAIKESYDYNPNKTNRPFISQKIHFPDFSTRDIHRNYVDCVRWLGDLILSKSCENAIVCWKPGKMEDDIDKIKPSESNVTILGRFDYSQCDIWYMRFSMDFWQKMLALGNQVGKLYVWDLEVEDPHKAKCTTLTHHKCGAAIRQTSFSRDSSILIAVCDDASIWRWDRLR
Chain of EZH1 (Q15022 whole entry partner): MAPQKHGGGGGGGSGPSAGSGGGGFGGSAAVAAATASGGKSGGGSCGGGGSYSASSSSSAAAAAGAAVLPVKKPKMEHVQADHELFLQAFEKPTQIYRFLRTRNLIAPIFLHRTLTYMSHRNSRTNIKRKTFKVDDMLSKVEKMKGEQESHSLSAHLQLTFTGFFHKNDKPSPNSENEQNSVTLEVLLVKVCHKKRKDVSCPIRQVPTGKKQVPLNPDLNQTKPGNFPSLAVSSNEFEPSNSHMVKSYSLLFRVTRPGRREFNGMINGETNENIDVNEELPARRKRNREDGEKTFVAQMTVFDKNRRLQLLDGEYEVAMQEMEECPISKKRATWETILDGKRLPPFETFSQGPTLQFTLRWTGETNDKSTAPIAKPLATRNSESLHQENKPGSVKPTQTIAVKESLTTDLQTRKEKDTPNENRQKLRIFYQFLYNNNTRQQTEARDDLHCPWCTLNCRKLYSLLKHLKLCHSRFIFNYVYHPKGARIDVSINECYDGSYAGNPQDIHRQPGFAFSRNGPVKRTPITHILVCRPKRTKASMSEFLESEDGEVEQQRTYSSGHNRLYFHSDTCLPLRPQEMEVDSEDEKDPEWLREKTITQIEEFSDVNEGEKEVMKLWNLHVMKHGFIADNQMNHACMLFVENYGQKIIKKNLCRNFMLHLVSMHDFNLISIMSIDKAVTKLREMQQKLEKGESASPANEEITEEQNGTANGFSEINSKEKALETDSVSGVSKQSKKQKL

## CC[C@H](C)n1cc(C)c2c(C(=O)NCc3c(C)cc(C)[nH]c3=O)cc(-c3ccc(N4CCNCC4)nc3)cc21 [GSK126]
[1]
  gene expression in tumor xenografts: increased
  global H3K27me3 in tumor xenografts: decreased
KARPAS-422 [2]
  cells in G1: 77%
[3]
  complete blood count, blood cell types: no significant changes
[4]; doses and schedules examined, mice with xenografts
  tolerability: well tolerated
[4]; mice bearing Pfeiffer or KARPAS-422 xenografts
  body weight: little to no decrease in body weight
KARPAS-422 xenografts; KARPAS-422 xenografts with large tumors, intermittent dosing, weekly or with 1 week drug holiday, all schedules
  tumor growth inhibition: 91-100%
KARPAS-422 xenografts; 50 mg/kg QD group
  tumor response upon cessation of dosing: tumor stasis
KARPAS-422 xenografts; 150 mg/kg QD group
  tumor response upon cessation of dosing: complete tumor eradication
KARPAS-422 xenografts; 300 mg/kg twice/week group
  tumor response upon cessation of dosing: complete tumor eradication
KARPAS-422 xenografts; daily 50 mg/kg, intraperitoneal
  tumor growth: complete tumor growth inhibition
KARPAS-422 xenografts; higher dosing regimens
  tumor growth: marked tumor regression
KARPAS-422 xenografts; mice bearing KARPAS-422 tumors
  survival of mice: statistically significant increased survival
Pfeiffer xenografts
  tumor growth: complete tumor growth inhibition
EZH1
  Ki: 89 nM
Pfeiffer
  time after which net decreases in cell number were evident: 3 days
  time after which potent inhibition of cell proliferation was observed: 2 days
Pfeiffer; Homo sapiens, 144 h, […], 6 days, DLBCL, EZH2 A677G (HET), read-out: AVERAGE GROWTH IC50
  IC50: 28 nM
KARPAS-422 [5]
  time required for maximal potency on growth: 6 to 7 days
KARPAS-422 [5]; Homo sapiens, 144 h, 6 days, DLBCL, EZH2 Y641F (HET), read-out: AVERAGE GROWTH IC50
  IC50: 232 nM
